{"source": "patent US6399622B1", "about": "“Method for diagnosing and alleviating the symptoms of chronic fatigue syndrome” (priority 1997, dated 2002)", "key": {"[1]": {"system": "herpes viruses", "details": "cited from earlier work"}, "[2]": {"system": "Epstein-Barr virus persistent infection", "assay": "Example 2: valacyclovir treatment of EBV-isolated CFS patients", "format": "in vivo, human", "from_the_text": "EBV-Isolated CFS Patients—Test of Antiviral Treatment. […] EBV active infection was documented by EBV VCA IgM antibodies and/or EBV EA elevated antibody titers. All of these patients had their energy levels reduced by 50% or more and were partially or entirely non-functional, unable to work or maintain a household. These ten patients had no diseases or complicating conditions which could have accounted for their chronic fatigue syndrome symptoms and they had no prior psychiatric diseases.\nEach patient's functional status was recorded as a statistically validated energy index (EI). At each out-patient visit, subjective evaluation of the patient's functional status was recorded using this energy index. The energy index records the average subjective vitality of the patient in the immediate 14 days prior to this specific out-patient visit. When minor illnesses such as the common cold complicated a visit, evaluation of the EI for a patient was delayed until the intercurrent problem receded.\nPrior to the initiation of the antiviral treatment and following approximately six months of treatment, objective evaluations of the ability to work and the energy index of each of the ten patients was analyzed.\nPursuant to the energy index, a patient with a 0 energy index (EI) is bedridden. With an energy index of 1 or 2, any activity by the patient leads to overwhelming, incapacitating fatigue. Such patients are generally light-headed, unable to think clearly, and concentration is difficult for any extended period of time (over 60 minutes). Left-sided chest aches, palpitations, sore throats and feverishness are frequent. These patients may be out of bed for intermittent, brief periods of the day.\nPatients with an energy index between 3 and 5 can, with great effort, be out of bed for several hours each day doing non-physical activities. […] These patients express variable light-headedness, inability to think clearly or read normally. Left-sided chest aches, palpitations, sore throats and feverishness occur often. Patients within this energy range cannot perform a 40 hour sedentary job or maintain the duties of a homemaker including such activities as cooking and cleaning. In general, CFS patients have an energy index of 5 or less.\nPatients with an energy index between 6 and 9 can assume normal activities and maintain a 40 hour work week and, with pacing, maintain a household. […] These patients can do light physical work or exercise in moderation without fatigue.\nPatients with an energy index of 10 have normal energy levels, stamina and a sense of well-being. Light-headedness, difficulties in concentrating and reading ability and chest aches, palpitations, sore throats and feverishness are absent.\nDuring the initial and final clinical visits, each CFS patient was studied to determine the IgM antibodies to the EBV viral capsid antigen (VCA), total early antigens (EA), and enzyme immunoassays (ELISA) to HCMV IgM and HCMV ELISA IgG titers. An IgM EBV VCA antibody titer indicates infectious lytic EBV multiplication within the most recent 3 month period. During the EBV infectious lytic cycle, antigen is expressed which can be divided into a diffuse (EAD) complex and a cytoplasmic restricted EAR complex (EAR). As a result, each patient's EAD was assayed. The presence of EBV EA antibody indicates current EBV multiplication. Likewise, an elevated […] IgM antibody indicates recent EBV or HCMV multiplication, respectively. The EBV VCA antibody IgM titers were done by the ELISA method. As a control group, similar serum antibody titers were measured in 20 non-CFS individuals. In the non-CFS control group, the mean HCMV IgG titer was 240.\nDosage. Each of the patients was administered an oral dose of valacyclovir at 10 mg/kg by mouth every six hours.\nDemographics. There were nine women and one person. Their ages ranged from 20-67 years. Their mean age was 43.3 years. […]"}, "[3]": {"details": "in vivo, po, 1000 mg; cited from earlier work"}, "[4]": {"system": "HCMV", "format": "in vivo, human", "details": "for mean energy index: six months later", "procedure": "HCMV-Isolated CFS Patients-Test of Antiviral Treatment. A study was conducted to assess the possible efficacy of ganciclovir treatment on a subset of CFS patients with (1) high HCMV IgG ELISA antibody titers; (2) minimal/no serologic evidence of concurrent EBV multiplication; and (3) oscillating ECG abnormalities at Holter monitoring. Patients. From March, 1993, through June, 1994, 3 men and 15 women with the mean age of 39.7 plus or minus 7.7 years, with CFS (as defined by the USA, Centers for Diseases Control criteria), were recruited from a single infectious diseases referral center in Birmingham, Mich. Approximately 50 patients with chronic fatigue syndrome were screened for inclusion in this study. […] In these 18 CFS patients, baseline standard 12 lead ECG, 2-D echocardiogram, rest-stress myocardial perfusion (thallium 201 or Tc-99 cardiolite) and rest-stress multiple […] acquisitions (MUGA) studies as well as coronary angiography excluded coronary artery disease. HCMV ELISA and HCMV ELISA IgG titers, as well as EBV capsid antigen (VCA), ELISA IgM and EBV total early antigens (EA) immunofluorescent antibody titers were assayed. Additionally, buffy coats, urine and myocardial biopsies were tested for infectious HCMV. […] Holter monitoring, MUGA studies and endomyocardial biopsies in these patients were done. Holter monitors, MUGA studies and endomyocardial biopsies were read blindly without knowledge of the patient. Also readings were repeated by at least one, and often several, other physician readers. A patient's 24-hour Holter monitor was considered positive if T-waves became intermittently inverted or flat. Labile T-wave abnormalities at Holter monitoring were present in each CFS patient. In addition to the Holter monitoring, at each outpatient visit, a subjective evaluation of the patient's functional status was recorded using the energy index (EI) as previously described. Infusions of Ganciclovir. After placement of a peripherally inserted central catheter (PICC) or a groshong catheter, ganciclovir was given intravenously in a dose of 5 mg. per kg. at 12-hour intervals for 30 days. Patients were seen once a week by the same physician and complete blood counts, SMA values and urinalysis were conducted. […] They were advised to avoid exercise, fatigue and alcohol and engage in regular sleeping patterns. Statistical Methods. Eighteen patients, 3 men and 15 women, all with CFS, with a mean age of 39.7 ranging from 29 to 51 years, were evaluated. Statistical significance between patients meeting the criteria for the HCMV subset and other patients with CFS were evaluated using tests of homogeneity of chi-square analysis and the two-tailed Fisher's exact test for bivariate analysis of dichotomous data."}, "[5]": {"system": "human cytomegalovirus (nonstructural gene products p52 and CM2)", "assay": "Example 4: Copalis antibody titers and fatigue after ganciclovir in HCMV CFS patients", "format": "in vivo", "from_the_text": "This Copalis® method to CM2 and p52 measures IgM antibodies to HCMV non-structural gene products. The non-structural gene products are UL44, UL57. These gene products have been produced in E-coli. The UL44 and UL57 refer to the open reading frames (ORF) of the human cytomegalovirus genome. The UL44 has the function of a polymerase processivity factor known as p52. The UL57 is the second gene product which may be measured by the Copalis® method and its function is as a single-stranded (ss) DNA binding protein CM2. These are nonstructural gene products which are extruded from a cell with incomplete human cytomegalovirus multiplication. The Copalis® method measures antibodies to these two gene products with the purified antigens produced in E-coli.\nThe Copalis® CMV Mutliplex assay is a homogenous test for the simultaneous determination of acute infection stages or immune status to Cytomegalovirus using coupled particle light scattering. Sized microparticles, coated with one of three antigens (p52, CM2, and CMV viral particle (VP)) are dried in the reaction cup. Early phase IgM antibodies are detected by both the CM2 and the p52 antigens. Antibody response to the CM2 antigen but not to the p52 antigen continues through the convalescent stage of acute infection. Antibodies to the VP may appear during acute infection but shall persist during life. Reactivity just (sucrose-density purified tissue culture produced complete HCMV cytomegalovirus) to the VP is characteristic of prior infection (indicative of immune status). Antibody detection, made by the Copalis® Immunoassay System, is reported qualitatively for the IgM analytes and semi-quantitatively for the total analyte.\nThe Copalis® CMVplex Antibody Assay is based on the principle of antibody dependent particle aggregation as measured by the amount of light scattered. A typical antibody reactivity pattern (IgM and/or IgG) in the patient sample allows diagnosis of the infection as seronegative, acute or past infections. The CMVplex Test Cup has polystyrene microparticles of three sizes each coated with different specific antigens dried in the bottom. The Test Cup is reconstituted with reaction buffer by the instrument. The sample is then transferred into the reaction well and the mixture is agitated for 10 minutes. Upon completion of the agitation, the reaction mixture is transferred to the optical system for analysis.\nThe level of aggregation is determined by discrimination of particle sizes and unreacted particles (monomers) as detected by the optical system. The quantity of assay particles remaining as monomers is compared to that of an unreacted baseline negative calibrator. A ratio is established between the counts of the two monomer particles. This ratio is reported as the Copalis® Test Result (CTR). The CTR is then converted into a numerical unit, Copalis® Index (CI), which determines the cutoff thresholds for each marker. Interpretation of results is based upon the CI. Results for the IgG marker (VP) are reported semi-quantitatively and qualitatively for the IgM markers (p52 and CM2).\nResults of Copalis® antibody testing in patients with the U.S. CDC-Chronic Fatigue Syndrome and various other patients with severe onset of […] fatigue. Group 1) Eight patients were studied with the chronic fatigue syndrome. They are six women and […] with ages ranging from 32 through 48. They had IgG antibodies to human cytomegalovirus. […] They would be evaluated as having past infection. […]"}, "[6]": {"details": "eight CFS patients, intravenous followed by oral ganciclovir"}}, "note": "Like-named read-outs stand apart in the source and are kept apart here."}
{"smiles": "O=C(O)P(=O)(O)O", "note": "[Foscarnet sodium, trisodium phosphonoformate]", "values": [{"measurement": "activity against herpes viruses", "setting": "[1]; in vitro and in vivo", "result": "potent in vitro and in vivo activity"}]}
{"smiles": "CC(C)[C@H](N)C(=O)OCCOCn1cnc2c(=O)[nH]c(N)nc21", "note": "[valacyclovir]", "values": [{"measurement": "mean energy index (EI) at completion of therapy", "setting": "[2]; 10 EBV CFS patients, 10 mg/kg by mouth every six hours, about six months, pre-therapy mean EI 4.7", "result": 7.5}, {"measurement": "median energy index (EI) at completion of therapy", "setting": "[2]; 10 EBV CFS patients, about six months of treatment", "result": 7}, {"measurement": "range of energy index (EI) at completion of therapy", "setting": "[2]; 10 EBV CFS patients, pre-therapy range 3.5 to 5.5", "result": "6-10"}, {"measurement": "patients with light-headedness, unsteadiness, inability to think well at completion of the trial", "setting": "[2]; at beginning 9 out of 10", "result": "one of ten"}, {"measurement": "patients with palpitations at completion of the trial", "setting": "[2]; at beginning five out of ten", "result": "three out of ten"}, {"measurement": "patients with positive EA antibody titers (≧10) at completion of the trial", "setting": "[2]; at beginning seven out of ten", "result": "eight out of ten"}, {"measurement": "patients with EBV VCA IgM positive titers at completion of the trial", "setting": "[2]; before trial five out of ten", "result": "two out of ten"}, {"measurement": "ability to work / activity level following treatment", "setting": "[2]; each of the ten patients, after approximately six months", "result": "able to fully engage in his/her activity level at work or home"}, {"measurement": "patients with chest pain at completion of the trial", "setting": "[2]; prior to therapy five out of ten", "result": "one out of ten"}]}
{"smiles": "O=c1[nH]c(=O)n([C@@H]2O[C@H](CO)[C@@H](O)[C@@H]2O)cc1/C=C/Br", "note": "[bromovinyl arabinosyl uracil]", "values": [{"measurement": "inhibition of herpes viruses", "setting": "[1]; herpes simplex virus Type 1, Epstein-Barr virus and VZV", "result": "significant inhibition"}]}
{"smiles": "CC(C)[C@H](N)C(=O)OCC(CO)OCn1cnc2c(=O)nc(N)[nH]c21", "note": "(stereo partly drawn) [valganciclovir]", "values": [{"measurement": "bioavailability (of ganciclovir)", "setting": "[3]", "result": 60.9, "unit": "%"}]}
{"smiles": "Nc1nc2c(ncn2COC(CO)CO)c(=O)[nH]1", "note": "[ganciclovir, 9-(1,3-dihydroxy-2-propoxymethyl) guanine]", "values": [{"measurement": "mean energy index", "setting": "[4]; Group A (13 improved patients), start mean 3", "result": 7}, {"measurement": "patients with improved MUGA test results (lesser tardokinesis, hypokinesis or left ventricular dilatation)", "setting": "[4]; Group A, after treatment", "result": 3, "unit": "patients"}, {"measurement": "patients with previously abnormal myocardial dynamics reverted to normal (MUGA)", "setting": "[4]; Group A, after treatment", "result": 3, "unit": "patients"}, {"measurement": "patients who resumed normal pre-CFS activity levels", "setting": "[4]; Group B", "result": "none"}, {"measurement": "mean energy index", "setting": "[4]; Group B (5 not improved patients), start mean 2", "result": 4}, {"measurement": "fatigue", "setting": "[4]; case study", "result": "disappeared"}, {"measurement": "maximal cardiac ejection fraction", "setting": "[4]; case study, a further five months later, from 54%", "result": 68, "unit": "%"}, {"measurement": "resting ejection fraction (stress MUGA)", "setting": "[4]; case study, five months after 30 days i.v. treatment, before 40%", "result": 54, "unit": "%"}, {"measurement": "increase of resting ejection fraction", "setting": "[4]; case study, from 40% to 54%", "result": 14, "unit": "%"}, {"measurement": "serum creatinine", "setting": "[4]; human, in vivo", "result": "transient increase in serum creatinine"}, {"measurement": "adverse events", "setting": "[4]; human, in vivo, iv", "result": "no adverse events or symptoms attributable to ganciclovir"}, {"measurement": "patients improved", "setting": "[4]; of 18 CFS patients, 5 mg per kg i.v. at 12-hour intervals for 30 days", "result": 13, "unit": "patients"}, {"measurement": "MUGA study at follow up", "setting": "[4]; one Group B patient with initial normal MUGA, 6 months after treatment", "result": "showed septal hypokinesis"}, {"measurement": "clinical response", "setting": "[4]; small preliminary subset of CFS patients with HCMV infection, no concurrent EBV multiplication", "result": "salutary response"}, {"measurement": "activity level after antiviral treatment", "setting": "[4]; the 13 patients in Group A", "result": "resumed their normal pre-CFS activity levels"}, {"measurement": "antibodies to nonstructural gene products p52 and CM2 (Copalis)", "setting": "[5]; [6]", "result": "became markedly lower and disappeared"}, {"measurement": "fatigue", "setting": "[5]; [6]", "result": "remarkably lessened"}, {"measurement": "clinical outcome", "setting": "[5]; person positive only by p52, intravenous followed by oral ganciclovir", "result": "improved remarkably"}, {"measurement": "cardiac function", "setting": "[5]; person with congestive heart failure and diabetes mellitus, intravenous", "result": "improved"}, {"measurement": "CM2 antibodies (Copalis)", "setting": "[5]; two CFS patients with high CM2, no elevated p52, intravenous followed by oral ganciclovir", "result": "lessened or disappeared"}, {"measurement": "bioavailability (of ganciclovir)", "setting": "[3]", "result": 5.6, "unit": "%"}]}
